From patent US20110294778A1, “HEPATITIS C INHIBITOR COMPOUNDS” (priority 2009, published 2011) come the findings set out here.

Read-outs that look alike come from different tables or passages of the source.

For assay [1], the system named is HCV genotype 1a (strain H77) subgenomic replicon with NS3 resistance mutation R155K in Huh-7 cells. Put plainly: HCV replicon RNA replication assay (NS3 protease variants), genotype 1a R155K. The format is cell-based. As to conditions: Hepatitis C virus. (In general: In antiviral work, replicon cells carry a viral genome segment that copies itself.)
Assay [2] has as its system HCV genotype 1b (Con-1) subgenomic replicon with NS3 resistance mutation D168V in Huh-7 cells. The experiment in a line: HCV replicon RNA replication assay (NS3 protease variants), genotype 1b D168V. The format is cell-based. As to conditions: Hepatitis C virus.
[3] abbreviates: Huh-7, 72 h, read-out: R155K 1a EC50 (nM).
Where [4] appears, read: Huh-7, 72 h, read-out: D168V 1b EC50 (nM).
Setting [5] is: Huh-7, read-out: R155K 1a Ec50 (nM).
Where [6] appears, read: Huh-7, read-out: D168V 1b Ec50 (nM).

As to `CCn1ccc(C(=O)N[C@H]2CCCCC/C=C\[C@@H]3C[C@@]3(C(=O)NS(=O)(=O)C3CC3)NC(=O)[C@@H]3C[C@@H](Oc4cc(OC(C)C)nc5c(C)c(OC)ccc45)CN3C2=O)n1` [Compound 1024, (2R,6S,12Z,13aS,14aR,16aS)-N-(cyclopropylsulfonyl)-6-{[(1-ethyl-1H-pyrazol-3-yl)carbonyl]amino}-2-{[7-methoxy-8-methyl-2-(propan-2-yloxy)quinolin-4-yl]oxy}-5,16-dioxo-1,2,3,6,7,8,9,10,11,13a,14,15,16,16a-tetradecahydrocyclopropa[e]pyrrolo[1,2-a][1,4]diazacyclopentadecine-14a(5H)-carboxamide], the figures for the EC50 in assay [1] (setting [3]) and in assay [2] (setting [4]) were 3.9 nM and 0.31 nM, respectively.
For `COc1ccc2c(O[C@@H]3C[C@H]4C(=O)N[C@]5(C(=O)NS(=O)(=O)C6(C)CC6)C[C@H]5/C=C\CCCCC[C@H](NC(=O)N5CC(C)(OC)C5)C(=O)N4C3)cc(OC(C)C)nc2c1C` [Compound 2009, (2R,6S,12Z,13aS,14aR,16aS)-6-{[(3-methoxy-3-methylazetidin-1-yl)carbonyl]amino}-2-{[7-methoxy-8-methyl-2-(propan-2-yloxy)quinolin-4-yl]oxy}-N-[(1-methylcyclopropyl)sulfonyl]-5,16-dioxo-1,2,3,6,7,8,9,10,11,13a,14,15,16,16a-tetradecahydrocyclopropa[e]pyrrolo[1,2-a][1,4]diazacyclopentadecine-14a(5H)-carboxamide], the EC50 (usually the concentration giving half of the maximal effect) in assay [1] (setting [3]) came out at 6.8 nM; in assay [2] (setting [4]) it was 2.9 nM.
Consider `COc1ccc2c(O[C@@H]3C[C@H]4C(=O)N[C@]5(C(=O)NS(=O)(=O)C6(C)CC6)C[C@H]5/C=C\CCCCC[C@H](NC(=O)c5ccc(C)s5)C(=O)N4C3)cc(OC3CC3)nc2c1C` [Compound 1012, (2R,6S,12Z,13aS,14aR,16aS)-2-{[2-(cyclopropyloxy)-7-methoxy-8-methylquinolin-4-yl]oxy}-N-[(1-methylcyclopropyl)sulfonyl]-6-{[(5-methylthiophen-2-yl)carbonyl]amino}-5,16-dioxo-1,2,3,6,7,8,9,10,11,13a,14,15,16,16a-tetradecahydrocyclopropa[e]pyrrolo[1,2-a][1,4]diazacyclopentadecine-14a(5H)-carboxamide], for which the half-maximal effective concentration (EC50) came out at 5.6 nM in assay [1] (setting [3]) and 0.26 nM in assay [2] (setting [4]).
Regarding `CCOc1cc(O[C@@H]2C[C@H]3C(=O)N[C@]4(C(=O)NS(=O)(=O)C5CC5)C[C@H]4/C=C\CCCCC[C@H](NC(=O)c4ccc(C)s4)C(=O)N3C2)c2ccc(OC)c(Br)c2n1` [Compound 1025, (2R,6S,12Z,13aS,14aR,16aS)-2-[(8-bromo-2-ethoxy-7-methoxyquinolin-4-yl)oxy]-N-(cyclopropylsulfonyl)-6-{[(5-methylthiophen-2-yl)carbonyl]amino}-5,16-dioxo-1,2,3,6,7,8,9,10,11,13a,14,15,16,16a-tetradecahydrocyclopropa[e]pyrrolo[1,2-a][1,4]diazacyclopentadecine-14a(5H)-carboxamide], the concentration giving a half-maximal response (EC50) in assay [1] (setting [3]) is 4.1 nM; in assay [2] (setting [4]) it was 0.32 nM.
For `COc1ccc2c(O[C@@H]3C[C@H]4C(=O)N[C@]5(C(=O)NS(=O)(=O)C6(C)CC6)C[C@H]5/C=C\CCCCC[C@H](NC(=O)c5ccn(C)n5)C(=O)N4C3)cc(OC(C)C)nc2c1OC` [Compound 1005, (2R,6S,12Z,13aS,14aR,16aS)-2-{[7,8-dimethoxy-2-(propan-2-yloxy)quinolin-4-yl]oxy}-N-[(1-methylcyclopropyl)sulfonyl]-6-{[(1-methyl-1H-pyrazol-3-yl)carbonyl]amino}-5,16-dioxo-1,2,3,6,7,8,9,10,11,13a,14,15,16,16a-tetradecahydrocyclopropa[e]pyrrolo[1,2-a][1,4]diazacyclopentadecine-14a(5H)-carboxamide] the same measures were 2.5 nM and 2 nM.
For the molecule `COc1ccc2c(O[C@@H]3C[C@H]4C(=O)N[C@]5(C(=O)NS(=O)(=O)C6CC6)C[C@H]5/C=C\CCCCC[C@H](NC(=O)c5ccn(C)n5)C(=O)N4C3)cc(OCC(F)(F)F)nc2c1C` [Compound 1015, (2R,6S,12Z,13aS,14aR,16aS)-N-(cyclopropylsulfonyl)-2-{[7-methoxy-8-methyl-2-(2,2,2-trifluoroethoxy)quinolin-4-yl]oxy}-6-{[(1-methyl-1H-pyrazol-3-yl)carbonyl]amino}-5,16-dioxo-1,2,3,6,7,8,9,10,11,13a,14,15,16,16a-tetradecahydrocyclopropa[e]pyrrolo[1,2-a][1,4]diazacyclopentadecine-14a(5H)-carboxamide], the concentration giving a half-maximal response (EC50) in assay [1] (setting [3]) came to 8.2 nM; in assay [2] (setting [4]), 0.57 nM.
`COc1ccc2c(O[C@@H]3C[C@H]4C(=O)N[C@]5(C(=O)NS(=O)(=O)C6(C)CC6)C[C@H]5/C=C\CCCCC[C@H](NC(=O)N5CCC5)C(=O)N4C3)cc(OC(C)C)nc2c1C` [Compound 2001, (2R,6S,12Z,13aS,14aR,16aS)-6-[(azetidin-1-ylcarbonyl)amino]-2-{[7-methoxy-8-methyl-2-(propan-2-yloxy)quinolin-4-yl]oxy}-N-[(1-methylcyclopropyl)sulfonyl]-5,16-dioxo-1,2,3,6,7,8,9,10,11,13a,14,15,16,16a-tetradecahydrocyclopropa[e]pyrrolo[1,2-a][1,4]diazacyclopentadecine-14a(5H)-carboxamide]: the EC50 amounted to 2.3 nM in assay [1] (setting [3]) and 0.48 nM in assay [2] (setting [4]).
For `COc1ccc2c(O[C@@H]3C[C@H]4C(=O)N[C@]5(C(=O)NS(=O)(=O)C6CC6)C[C@H]5/C=C\CCCCC[C@H](NC(=O)c5ccn(C)n5)C(=O)N4C3)cc(OC(C)C)nc2c1C` [Compound 1003, (2R,6S,12Z,13aS,14aR,16aS)-N-(cyclopropylsulfonyl)-2-{[7-methoxy-8-methyl-2-(propan-2-yloxy)quinolin-4-yl]oxy}-6-{[(1-methyl-1H-pyrazol-3-yl)carbonyl]amino}-5,16-dioxo-1,2,3,6,7,8,9,10,11,13a,14,15,16,16a-tetradecahydrocyclopropa[e]pyrrolo[1,2-a][1,4]diazacyclopentadecine-14a(5H)-carboxamide], the concentration giving a half-maximal response (EC50) in assay [1] (setting [3]) is 4.3 nM; in assay [2] (setting [4]), 0.29 nM.
Turning to `COc1ccc2c(C[C@H]3CC4C(=O)N(C)CCCC/C=C\[C@H]5C[C@]5(C(=O)NS(=O)(=O)C5CC5)NC(=O)[C@@H]4C3)cc(-c3nc(C(C)C)cs3)nc2c1C` (stereo partly shown) [reference compound], the results for the EC50 in assay [1] (setting [5]) and in assay [2] (setting [6]) were 300 nM and 4400 nM, respectively.
For the molecule `Cc1c(O)ccc2c(O[C@@H]3C[C@H]4C(=O)N[C@]5(C(=O)NS(=O)(=O)C6(C)CC6)C[C@H]5/C=C\CCCCC[C@H](NC(=O)N(C)C)C(=O)N4C3)cc(OC(C)C)nc12` [Compound 2022, (2R,6S,12Z,13aS,14aR,16aS)-6-[(dimethylcarbamoyl)amino]-2-{[7-hydroxy-8-methyl-2-(propan-2-yloxy)quinolin-4-yl]oxy}-N-[(1-methylcyclopropyl)sulfonyl]-5,16-dioxo-1,2,3,6,7,8,9,10,11,13a,14,15,16,16a-tetradecahydrocyclopropa[e]pyrrolo[1,2-a][1,4]diazacyclopentadecine-14a(5H)-carboxamide], the EC50 was 4.9 nM in assay [1] (setting [3]) and 1.8 nM in assay [2] (setting [4]).
Take `CC(C)(C)OC(=O)N[C@H]1CCCCC/C=C\C2C[C@@]2(C(=O)NS(=O)(=O)C2CC2)NC(=O)[C@@H]2C[C@@H](OC(=O)N3Cc4cccc(F)c4C3)CN2C1=O` (stereo partly shown) [reference compound]: the half-maximal effective concentration (EC50) in assay [1] (setting [5]) was found to be 690 nM; in assay [2] (setting [6]) it was 120 nM.
Consider `COc1ccc2c(O[C@@H]3C[C@H]4C(=O)N[C@]5(C(=O)NS(=O)(=O)C6CC6)C[C@H]5/C=C\CCCCC[C@H](NC(=O)c5cnn(C)n5)C(=O)N4C3)cc(OC(C)C)nc2c1C` [Compound 1013, (2R,6S,12Z,13aS,14aR,16aS)-N-(cyclopropylsulfonyl)-2-{[7-methoxy-8-methyl-2-(propan-2-yloxy)quinolin-4-yl]oxy}-6-{[(2-methyl-2H-1,2,3-triazol-4-yl)carbonyl]amino}-5,16-dioxo-1,2,3,6,7,8,9,10,11,13a,14,15,16,16a-tetradecahydrocyclopropa[e]pyrrolo[1,2-a][1,4]diazacyclopentadecine-14a(5H)-carboxamide], for which the half-maximal effective concentration (EC50) came to 7.8 nM in assay [1] (setting [3]) and 0.52 nM in assay [2] (setting [4]).
As to `COc1c(F)ccc2c(O[C@@H]3C[C@H]4C(=O)N[C@]5(C(=O)NS(=O)(=O)C6(C)CC6)C[C@H]5/C=C\CCCCC[C@H](NC(=O)N(C)C)C(=O)N4C3)cc(OC(C)C)nc12` [Compound 2002, (2R,6S,12Z,13aS,14aR,16aS)-6-[(dimethylcarbamoyl)amino]-2-{[7-fluoro-8-methoxy-2-(propan-2-yloxy)quinolin-4-yl]oxy}-N-[(1-methylcyclopropyl)sulfonyl]-5,16-dioxo-1,2,3,6,7,8,9,10,11,13a,14,15,16,16a-tetradecahydrocyclopropa[e]pyrrolo[1,2-a][1,4]diazacyclopentadecine-14a(5H)-carboxamide], the concentration giving a half-maximal response (EC50) was 4.7 nM in assay [1] (setting [3]) and 0.41 nM in assay [2] (setting [4]).
On to `Cc1c(F)ccc2c(O[C@@H]3C[C@H]4C(=O)N[C@]5(C(=O)NS(=O)(=O)C6(C)CC6)C[C@H]5/C=C\CCCCC[C@H](NC(=O)N(C)C)C(=O)N4C3)cc(OC(C)C)nc12` [Compound 2018, (2R,6S,12Z,13aS,14aR,16aS)-6-[(dimethylcarbamoyl)amino]-2-{[7-fluoro-8-methyl-2-(propan-2-yloxy)quinolin-4-yl]oxy}-N-[(1-methylcyclopropyl)sulfonyl]-5,16-dioxo-1,2,3,6,7,8,9,10,11,13a,14,15,16,16a-tetradecahydrocyclopropa[e]pyrrolo[1,2-a][1,4]diazacyclopentadecine-14a(5H)-carboxamide], for which the EC50 in assay [1] (setting [3]) came out at 5.7 nM; in assay [2] (setting [4]) it was 1.2 nM.
